The source of these data is ChEMBL document CHEMBL1157801, “Discovery of an in vitro and in vivo potent resorcylic lactone analog of LL-Z1640-2 as anti-inflammatory lead, II” (Bioorg Med Chem Lett, 2010).

The source made the active and inactive calls. The calls are words filed in the database; no cut-off is given here. Bounds are passed on as bounds.

Test [1] relates to U-937. Put plainly: Inhibition of PALP-fussed TNFalpha production in human U937 cells. The test is classed as functional, cell-based.
Test [2] has as its system U-937. Put plainly: Inhibition of PALP-fussed actin production in human U937 cells. The test is classed as functional, cell-based.
Another test deals with Mus musculus. The test is described as follows: Antiinflammatory activity in iv dosed mouse assessed as inhibition of LPS-stimulated TNFalpha production. The test is classed as functional.

In general, IC50 refers to the concentration that gives 50% inhibition. A low value points to higher potency. In general, ED50 refers to the dose at which the effect has come halfway, by size or by number of responders. For the compound `CCOc1cc(O)c2c(c1)/C=C/C[C@H](O)[C@H](O)C(=O)/C=C\[C@@H](C)[C@H](C)OC2=O`, the IC50 is 100 nM with U-937 [1] and above 10000 nM with U-937 [2]. In addition, the ED50 in the test with Mus musculus came to 12 mg/kg.
On to `C[C@@H]1/C=C\C(=O)[C@@H](O)[C@@H](O)C/C=C/c2cc(OCC(O)CO)cc(O)c2C(=O)O[C@H]1C` (some centres undefined), for which the IC50 in the test on U-937 [1] is 383 nM; in the test on U-937 [2] it was above 10000 nM.
Consider `C[C@@H]1/C=C\C(=O)[C@@H](O)[C@@H](O)C/C=C/c2cc(OCCN3CCOCC3)cc(O)c2C(=O)O[C@H]1C`, for which the results for the IC50 in the test on U-937 [1] and with U-937 [2] were 59 nM and above 10000 nM, respectively.
For `CCCCOc1cc(O)c2c(c1)/C=C/C[C@H](O)[C@H](O)C(=O)/C=C\[C@@H](C)[C@H](C)OC2=O`, the figures for the IC50 in the test on U-937 [1] and in the test on U-937 [2] were 325 nM and above 10000 nM, respectively.
For `COc1cc(O)c2c(c1Br)/C=C/C[C@H](O)[C@H](O)C(=O)/C=C\[C@@H](C)[C@H](C)OC2=O`, the IC50 in the test on U-937 [1] was 804 nM; in the test with U-937 [2], above 10000 nM.
For the compound `COc1cc(O)c2c(c1)/C=C/C[C@H](O)[C@H](O)C(=O)/C=C\[C@@H](C)[C@H](C)OC2=O`, the results for the IC50 in the test on U-937 [1] and in the test with U-937 [2] were 136 nM and above 10000 nM, respectively. Also, the ED50 in the test with Mus musculus stood at 13.2 mg/kg.
In the case of `C[C@@H]1/C=C\C(=O)[C@@H](O)[C@@H](O)C/C=C/c2cc(OCCNc3ccccn3)cc(O)c2C(=O)O[C@H]1C`, the values for the IC50 in the test on U-937 [1] and with U-937 [2] were 113 nM and above 10000 nM, respectively.
On the same counts, the results for `C[C@@H]1/C=C\C(=O)[C@@H](O)[C@@H](O)C/C=C/c2cc(O)cc(O)c2C(=O)O[C@H]1C` are 515 nM and above 10000 nM.
`CC(=O)NCCOc1cc(O)c2c(c1)/C=C/C[C@H](O)[C@H](O)C(=O)/C=C\[C@@H](C)[C@H](C)OC2=O`: the IC50 in the test with U-937 [1] was 65 nM; in the test on U-937 [2], above 10000 nM.
`C[C@@H]1/C=C\C(=O)[C@@H](O)[C@@H](O)C/C=C/c2cc(OCCn3ccnc3)cc(O)c2C(=O)O[C@H]1C`: the IC50 with U-937 [1] was 15 nM; in the test on U-937 [2], above 10000 nM. For the same compound, the ED50 in the test with Mus musculus was found to be 6.5 mg/kg.
`C[C@@H]1/C=C\C(=O)[C@@H](O)[C@@H](O)C/C=C/c2cc(OC(F)F)cc(O)c2C(=O)O[C@H]1C`: the IC50 is 615 nM in the test on U-937 [1] and above 10000 nM in the test on U-937 [2].
Consider `COc1cc(O)c2c(c1)/C=C/C[C@H](O)[C@H](O)C(=O)/C=C\C[C@H](C)OC2=O`, for which the ED50 result in the test on Mus musculus was “inactive”.
As for `C[C@@H]1/C=C\C(=O)[C@@H](O)[C@@H](O)C/C=C/c2cc(OCCCS(C)(=O)=O)cc(O)c2C(=O)O[C@H]1C`, the IC50 in the test with U-937 [1] is 32 nM; in the test with U-937 [2] it was above 10000 nM. Also, the ED50 with Mus musculus came out at 9.8 mg/kg.
Regarding `C[C@@H]1/C=C\C(=O)[C@@H](O)[C@@H](O)C/C=C/c2cc(OCc3ccc(Cl)c(Cl)c3)cc(O)c2C(=O)O[C@H]1C`, the results for the IC50 in the test with U-937 [1] and in the test with U-937 [2] were 752 nM and above 10000 nM, respectively.
The like results for `COc1cc(O)c2c(c1)OCC[C@H](O)[C@H](O)C(=O)/C=C\[C@@H](C)[C@H](C)OC2=O` were, in that order, 1680 nM and above 10000 nM.
Turning to `CC(C)Oc1cc(O)c2c(c1)/C=C/C[C@H](O)[C@H](O)C(=O)/C=C\[C@@H](C)[C@H](C)OC2=O`, the IC50 in the test with U-937 [1] was 687 nM; in the test with U-937 [2], above 10000 nM.
Regarding `CC(=O)NCC(=O)COc1cc(O)c2c(c1)/C=C/C[C@H](O)[C@H](O)C(=O)/C=C\[C@@H](C)[C@H](C)OC2=O`, the IC50 was 31 nM in the test with U-937 [1] and above 10000 nM in the test on U-937 [2].
Consider `CCCOc1cc(O)c2c(c1)/C=C/C[C@H](O)[C@H](O)C(=O)/C=C\[C@@H](C)[C@H](C)OC2=O`, for which the IC50 with U-937 [1] was 249 nM; in the test on U-937 [2], above 10000 nM.
The like results for `C[C@@H]1/C=C\C(=O)[C@@H](O)[C@@H](O)C/C=C/c2cc(OCc3ccccc3)cc(O)c2C(=O)O[C@H]1C` were, in that order, 319 nM and above 10000 nM.
For `C[C@@H]1/C=C\C(=O)[C@@H](O)[C@@H](O)C/C=C/c2cc(OCCn3ccnn3)cc(O)c2C(=O)O[C@H]1C`, the figures for the IC50 in the test on U-937 [1] and in the test on U-937 [2] were 43 nM and above 10000 nM, respectively.
On to `COc1cc(O)c2c(c1)NC(=O)C[C@H](O)[C@H](O)C(=O)/C=C\[C@@H](C)[C@H](C)OC2=O`, for which the IC50 in the test on U-937 [1] is 293 nM; in the test with U-937 [2], above 10000 nM.
On to `COc1ccc(COc2cc(O)c3c(c2)/C=C/C[C@H](O)[C@H](O)C(=O)/C=C\[C@@H](C)[C@H](C)OC3=O)cc1`, for which the IC50 was 168 nM in the test on U-937 [1] and above 10000 nM in the test with U-937 [2].
Take `C[C@@H]1/C=C\C(=O)[C@@H](O)[C@@H](O)C/C=C/c2cc(OCCN(C)C)cc(O)c2C(=O)O[C@H]1C`: the values for the IC50 in the test with U-937 [1] and in the test with U-937 [2] were 597 nM and above 10000 nM, respectively.
